Earlier results as cited in patent US4174406A, “Terpenylaminoalkanol fish toxicants” (priority 1977, dated 1979).
Where two headings read alike, the source gives them in different places.

Tested on: Carp
Details: registered fish toxicants, cited from earlier work

C=C(C)[C@H]1Cc2c(ccc3c2O[C@@H]2COc4cc(OC)c(OC)cc4[C@@H]2C3=O)O1 [Rotenone]
effect of water pH on activity: adversely affected by waters of high pH | selectivity for carp: non-selective for carp

antimycin
effect of water pH on activity: adversely affected by pH | selectivity for carp: non-selective for carp | effect of water pH on activity (listed as antimyein): adversely affected by waters of high pH
